Measured values reported in ChEMBL document CHEMBL1649287, “Postantibiotic effect of ceftaroline against gram-positive organisms” (2009).
≈ marks a conversion by molar mass, not a printed value.

Key:
Format in all cases: functional
Staphylococcus aureus [1] = assay: Antimicrobial activity against methicillin-susceptible, vancomycin-susceptible Staphylococcus aureus sox1 assessed as time required to induce sub-MIC effect at 0.2 times MIC after 1 hr by plate counting method; details: sox1, 1 h
Staphylococcus aureus [2] = assay: Antimicrobial activity against methicillin-resistant, vancomycin-susceptible Staphylococcus aureus vs1 assessed as time required to induce sub-MIC effect at 0.2 times MIC after 1 hr by plate counting method; details: vs1, 1 h
Staphylococcus aureus [3] = assay: Antimicrobial activity against methicillin-resistant, vancomycin-resistant Staphylococcus aureus 770 assessed as time required to induce sub-MIC effect at 0.2 times MIC after 1 hr by plate counting method; details: Staphylococcus aureus, 770, 1 h
Enterococcus faecalis [4] = assay: Antimicrobial activity against vancomycin-sensitive Enterococcus faecalis 10 assessed as time required to induce sub-MIC effect at 0.2 times MIC after 1 hr by plate counting method; details: Enterococcus faecalis, 10, 1 h
Enterococcus faecalis [5] = assay: Antimicrobial activity against vancomycin-sensitive Enterococcus faecalis ATCC 29212 assessed as time required to induce sub-MIC effect at 0.2 times MIC after 1 hr by plate counting method; details: ATCC 29212, 1 h
Streptococcus pneumoniae [6] = assay: Antimicrobial activity against Penicillin-susceptible Streptococcus pneumoniae s502 assessed as time required to induce post antibiotic sub-MIC effect at 0.2 times MIC after 1 hr by plate counting method; details: s502, 1 h
Staphylococcus aureus [7] = assay: Antimicrobial activity against methicillin-resistant, vancomycin-susceptible Staphylococcus aureus vs1 assessed as time required to induce post antibiotic sub-MIC effect at 0.2 times MIC after 1 hr by plate counting method; details: vs1, 1 h
Streptococcus pneumoniae [8] = assay: Antimicrobial activity against Penicillin-, erythromycin-resistant Streptococcus pneumoniae 37 assessed as time required to induce sub-MIC effect at 0.3 times MIC after 1 hr by plate counting method; details: Streptococcus pneumoniae, 37, 1 h
Staphylococcus aureus [9] = assay: Antimicrobial activity against methicillin-susceptible, vancomycin-susceptible Staphylococcus aureus sox1 assessed as time required to induce sub-MIC effect at 0.3 times MIC after 1 hr by plate counting method; details: sox1, 1 h
Staphylococcus aureus [10] = assay: Antimicrobial activity against methicillin-resistant, vancomycin-intermediate Staphylococcus aureus 510 assessed as time required to induce sub-MIC effect at 0.3 times MIC after 1 hr by plate counting method; details: Staphylococcus aureus, 510, 1 h
Enterococcus faecalis [11] = assay: Antimicrobial activity against vancomycin-sensitive Enterococcus faecalis 10 assessed as time required to induce sub-MIC effect at 0.3 times MIC after 1 hr by plate counting method; details: Enterococcus faecalis, 10, 1 h
Streptococcus pneumoniae [12] = assay: Antimicrobial activity against Penicillin-susceptible Streptococcus pneumoniae s502 assessed as time required to induce post antibiotic sub-MIC effect at 0.3 times MIC after 1 hr by plate counting method; details: s502, 1 h
Staphylococcus aureus [13] = assay: Antimicrobial activity against methicillin-resistant, vancomycin-resistant Staphylococcus aureus 770 assessed as time required to induce post antibiotic sub-MIC effect at 0.3 times MIC after 1 hr by plate counting method; details: Staphylococcus aureus, 770, 1 h
Enterococcus faecalis [14] = assay: Antimicrobial activity against vancomycin-sensitive Enterococcus faecalis 20 assessed as time required to induce post antibiotic sub-MIC effect at 0.3 times MIC after 1 hr by plate counting method; details: Enterococcus faecalis, 20, 1 h
Enterococcus faecalis [15] = assay: Antimicrobial activity against vancomycin-resistant Enterococcus faecalis 266 assessed as time required to induce post antibiotic sub-MIC effect at 0.3 times MIC after 1 hr by plate counting method; details: Enterococcus faecalis, 266, 1 h
Streptococcus pneumoniae [16] = assay: Antimicrobial activity against Penicillin-susceptible Streptococcus pneumoniae ATCC 49617 assessed as time required to induce sub-MIC effect at 0.4 times MIC after 1 hr by plate counting method; details: ATCC 49617, 1 h
Streptococcus pneumoniae [17] = assay: Antimicrobial activity against Penicillin-intermediate Streptococcus pneumoniae s1234 assessed as time required to induce sub-MIC effect at 0.4 times MIC after 1 hr by plate counting method; details: s1234, 1 h
Staphylococcus aureus [18] = assay: Antimicrobial activity against methicillin-resistant, vancomycin-susceptible Staphylococcus aureus vs1 assessed as time required to induce sub-MIC effect at 0.4 times MIC after 1 hr by plate counting method; details: vs1, 1 h
Staphylococcus aureus [19] = assay: Antimicrobial activity against methicillin-susceptible, vancomycin-susceptible Staphylococcus aureus sox1 assessed as time required to induce post antibiotic sub-MIC effect at 0.4 times MIC after 1 hr by plate counting method; details: sox1, 1 h
Staphylococcus aureus [20] = assay: Antimicrobial activity against methicillin-resistant, vancomycin-susceptible Staphylococcus aureus vs1 assessed as time required to induce post antibiotic sub-MIC effect at 0.4 times MIC after 1 hr by plate counting method; details: vs1, 1 h
Staphylococcus aureus [21] = assay: Antimicrobial activity against methicillin-resistant, vancomycin-intermediate Staphylococcus aureus 510 assessed as time required to induce post antibiotic sub-MIC effect at 0.4 times MIC after 1 hr by plate counting method; details: Staphylococcus aureus, 510, 1 h
Enterococcus faecalis [22] = assay: Antimicrobial activity against vancomycin-sensitive Enterococcus faecalis 20 assessed as time required to induce post antibiotic sub-MIC effect at 0.4 times MIC after 1 hr by plate counting method; details: Enterococcus faecalis, 20, 1 h
Staphylococcus aureus [23] = assay: Antimicrobial activity against Staphylococcus aureus ATCC 29213 infected in neutropenic ICR mouse assessed as post antibiotic effect at 1.56 to 100 mg/kg, sc administered 14 hrs post infection; details: dose mg/kg 1.56-100; route subcutaneous
Streptococcus pneumoniae [24] = assay: Antimicrobial activity against Penicillin-, erythromycin-resistant Streptococcus pneumoniae 37 by microdilution method
Staphylococcus aureus [25] = assay: Antimicrobial activity against methicillin-susceptible, vancomycin-susceptible Staphylococcus aureus sox1 by microdilution method
Staphylococcus aureus [26] = assay: Antimicrobial activity against methicillin-resistant, vancomycin-susceptible Staphylococcus aureus vs1 by microdilution method
Staphylococcus aureus [27] = assay: Antimicrobial activity against methicillin-resistant, vancomycin-resistant Staphylococcus aureus 770 by microdilution method
Enterococcus faecalis [28] = assay: Antimicrobial activity against vancomycin-sensitive Enterococcus faecalis 10 by microdilution method
Enterococcus faecalis [29] = assay: Antimicrobial activity against vancomycin-resistant Enterococcus faecalis 266 by microdilution method
Enterococcus faecalis [30] = assay: Antimicrobial activity against vancomycin-resistant Enterococcus faecalis 609 by microdilution method
Streptococcus pneumoniae [31] = assay: Antimicrobial activity against Penicillin-, erythromycin-resistant Streptococcus pneumoniae 37 assessed as post antibiotic effect at 10 times MIC after 1 hr by plate counting method; details: Streptococcus pneumoniae, 37, 1 h
Staphylococcus aureus [32] = assay: Antimicrobial activity against methicillin-resistant, vancomycin-resistant Staphylococcus aureus 770 assessed as post antibiotic effect at 10 times MIC after 1 hr by plate counting method; details: Staphylococcus aureus, 770, 1 h
Staphylococcus aureus [33] = assay: Antimicrobial activity against methicillin-resistant, vancomycin-intermediate Staphylococcus aureus 510 assessed as post antibiotic effect at 10 times MIC after 1 hr by plate counting method; details: Staphylococcus aureus, 510, 1 h
Enterococcus faecalis [34] = assay: Antimicrobial activity against vancomycin-sensitive Enterococcus faecalis 10 assessed as post antibiotic effect at 10 times MIC after 1 hr by plate counting method; details: Enterococcus faecalis, 10, 1 h
Enterococcus faecalis [35] = assay: Antimicrobial activity against vancomycin-resistant Enterococcus faecalis 266 assessed as post antibiotic effect at 10 times MIC after 1 hr by plate counting method; details: Enterococcus faecalis, 266, 1 h
Streptococcus pneumoniae [36] = assay: Antimicrobial activity against Penicillin-susceptible Streptococcus pneumoniae s502 assessed as time required to induce sub-MIC effect at 0.2 times MIC after 1 hr by plate counting method
Streptococcus pneumoniae [37] = assay: Antimicrobial activity against Penicillin-, erythromycin-resistant Streptococcus pneumoniae 37 assessed as time required to induce sub-MIC effect at 0.2 times MIC after 1 hr by plate counting method; details: Streptococcus pneumoniae, 37, 1 h

CCO/N=C(\C(=O)N[C@@H]1C(=O)N2C(C(=O)[O-])=C(Sc3nc(-c4cc[n+](C)cc4)cs3)CS[C@H]12)c1nsc(NP(=O)(O)O)n1 [CEFTAROLINE FOSAMIL]
PAE (Staphylococcus aureus [1]): 0.2 h
time (Staphylococcus aureus [2]): 0.4 h
time (Staphylococcus aureus [3]): 0.3 h
PAE (Enterococcus faecalis [4]): 0.8 h
PAE (Enterococcus faecalis [5]): 3.1 h
PAE (Streptococcus pneumoniae [6]): 2.7 h
time (Staphylococcus aureus [7]): 2.7 h
time (Streptococcus pneumoniae [8]): 0.5 h
PAE (Staphylococcus aureus [9]): 0.9 h
time (Staphylococcus aureus [10]): 0.7 h
PAE (Enterococcus faecalis [11]): 1.5 h
PAE (Streptococcus pneumoniae [12]): 3.5 h
time (Staphylococcus aureus [13]): 5 h
PAE (Enterococcus faecalis [14]): 8.6 h
time (Enterococcus faecalis [15]): > 10.3 h
PAE (Streptococcus pneumoniae [16]): 0.8 h
PAE (Streptococcus pneumoniae [17]): 0.6 h
time (Staphylococcus aureus [18]): 1.2 h
PAE (Staphylococcus aureus [19]): 6.2 h
time (Staphylococcus aureus [20]): 6.7 h
time (Staphylococcus aureus [21]): > 10 h
PAE (Enterococcus faecalis [22]): 10.5 h
PAE (Staphylococcus aureus [23]): 0.8 h
MIC (Streptococcus pneumoniae [24]): 0.25 µg/mL (≈ 0.365 µM)
MIC (Staphylococcus aureus [25]): 0.25 µg/mL (≈ 0.365 µM)
MIC (Staphylococcus aureus [26]): 0.5 µg/mL (≈ 0.73 µM)
MIC (Staphylococcus aureus [27]): 1 µg/mL (≈ 1.46 µM)
MIC (Enterococcus faecalis [28]): 0.5 µg/mL (≈ 0.73 µM)
MIC (Enterococcus faecalis [29]): 2 µg/mL (≈ 2.92 µM)
MIC (Enterococcus faecalis [30]): 1 µg/mL (≈ 1.46 µM)
PAE (Streptococcus pneumoniae [31]): 1.5 h
PAE (Staphylococcus aureus [32]): 1.3 h
PAE (Staphylococcus aureus [33]): 1.4 h
PAE (Enterococcus faecalis [34]): 0.5 h
PAE (Enterococcus faecalis [35]): 0.9 h
PAE (Streptococcus pneumoniae [36]): 0 h
time (Streptococcus pneumoniae [37]): 0.5 h
